Data set [1] deals with σ receptors (rat cerebral cortex). The experiment in a line: Binding assay, σ receptors ([3H]DTG). To be noted: compound 1×10^−6 M. The method, then: (§1) Moreover, ability of the compounds of the invention to block potassium channel hERG was tested.
(§2) The specific ligand binding to the receptors is defined as the difference between the total binding and the non-specific binding determined in the presence of an excess of unlabelled ligand.
(§3) The inhibition constants (Ki) were calculated using the Cheng Prusoff equation (Ki=IC50/(1+(L/KD)), where L=concentration of radioligand in the assay, and KD=affinity of the radioligand for the receptor). A Scatchard plot is used to determine the Kd. The IC50 values (concentration causing a half-maximal inhibition of control specific binding) and Hill coefficients (nH) were determined by non-linear regression analysis of the competition curves generated with mean replicate values using Hill equation curve fitting (Y=D+[(A−D)/(1+(C/C50)^nH)], where Y=specific binding, D=minimum specific binding, A=maximum specific binding, C=compound concentration, C50=IC50, and nH=slope factor). This analysis was performed using a software developed at Cerep (Hill software) and validated by comparison with data generated by the commercial software SigmaPlot® 4.0 for Windows® (©1997 by SPSS Inc.).
Experimental conditions for tests are given in Table 14, and results of tests for representative compounds are given in Table 15a and 15b.

Data set [2] has as its target T1, 5-HT2A (h), human recombinant (HEK-293 cells) (Homo sapiens, UniProt P28223).
T1 construct: expressed in transfected cells; host or cells: HEK-293 cells
Description: Cellular functional assay 5-HT2A (h) agonism. To be noted: compound 1×10^−6 M; control 10 μM serotonin. The format is cell-based. Here is the method: The results are expressed as a percent of control specific agonist response ((measured specific response/control specific agonist response)×100) obtained in the presence of tested compound.
The EC50 values (concentration producing a half-maximal specific response) and IC50 values (concentration causing a half-maximal inhibition of the control specific agonist response) were determined by non-linear regression analysis of the concentration-response curves generated with mean replicate values using Hill equation curve fitting (Y=D+[(A−D)/(1+(C/C50)nH)], where Y=specific response, D=minimum specific response, A=maximum specific response, C=compound concentration, and C50=EC50 or IC50, and nH=slope factor).
For the antagonists, the apparent dissociation constants (Kb) were calculated using the modified Cheng Prusoff equation (Kb=IC50/(1+(A/EC50A)), where A=concentration of reference agonist in the assay, and EC50A=EC50 value of the reference agonist).

The target in data set [3] is T2, hERG potassium channels (KCNH2 gene, expressed in CHO cells) (Homo sapiens, UniProt Q12809).
T2 construct: expressed in transfected cells; host or cells: CHO cells
T2 sequence (Q12809 whole entry): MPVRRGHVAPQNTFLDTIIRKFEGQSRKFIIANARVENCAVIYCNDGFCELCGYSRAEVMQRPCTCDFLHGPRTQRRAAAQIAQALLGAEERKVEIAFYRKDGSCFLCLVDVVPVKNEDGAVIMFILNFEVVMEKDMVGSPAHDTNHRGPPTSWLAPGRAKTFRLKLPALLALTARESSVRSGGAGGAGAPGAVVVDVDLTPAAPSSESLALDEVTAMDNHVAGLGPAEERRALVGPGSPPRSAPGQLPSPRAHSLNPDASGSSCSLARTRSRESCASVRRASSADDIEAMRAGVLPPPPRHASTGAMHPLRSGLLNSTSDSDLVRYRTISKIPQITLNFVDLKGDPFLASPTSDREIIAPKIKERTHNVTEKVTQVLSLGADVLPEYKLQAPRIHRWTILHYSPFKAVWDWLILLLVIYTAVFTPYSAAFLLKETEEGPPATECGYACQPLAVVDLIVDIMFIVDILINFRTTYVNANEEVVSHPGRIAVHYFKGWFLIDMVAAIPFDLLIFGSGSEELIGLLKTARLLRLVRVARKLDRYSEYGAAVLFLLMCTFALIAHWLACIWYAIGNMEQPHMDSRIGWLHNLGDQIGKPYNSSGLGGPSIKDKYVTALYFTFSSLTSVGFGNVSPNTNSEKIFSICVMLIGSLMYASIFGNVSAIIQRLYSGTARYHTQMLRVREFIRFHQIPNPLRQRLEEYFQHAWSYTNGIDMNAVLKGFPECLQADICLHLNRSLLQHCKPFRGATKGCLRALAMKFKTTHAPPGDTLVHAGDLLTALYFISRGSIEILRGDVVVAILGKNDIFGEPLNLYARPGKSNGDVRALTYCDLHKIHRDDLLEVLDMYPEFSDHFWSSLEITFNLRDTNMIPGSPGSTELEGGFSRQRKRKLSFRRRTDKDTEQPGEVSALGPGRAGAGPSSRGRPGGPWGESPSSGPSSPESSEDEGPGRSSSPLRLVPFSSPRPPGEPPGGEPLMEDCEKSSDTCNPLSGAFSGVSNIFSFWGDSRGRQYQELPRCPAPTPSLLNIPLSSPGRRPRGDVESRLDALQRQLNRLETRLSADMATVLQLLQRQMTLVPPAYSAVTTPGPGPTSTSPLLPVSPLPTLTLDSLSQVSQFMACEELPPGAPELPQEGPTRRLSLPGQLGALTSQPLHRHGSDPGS
Description: Ability to block hERG potassium channel, electrophysiology (IonWorks Quattro). To be noted: for hERG [%] (% block of hERG current): compound 1×10^−5 M; for Ki: read-out: Inhibition constants Ki for hERG potassium channels (column head H1 [nM]). The format is cell-based. The method, then: Ability to block hERG potassium channels was determined using the electrophysiological method and cloned hERG potassium channels (KCNH2 gene, expressed in CHO cells) as biological material. The effects were evaluated using IonWorks™ Quattro system (MDS-AT).
hERG current was elicited using a pulse pattern with fixed amplitudes (conditioning prepulse: −80 mV for 25 ms; test pulse: +40 mV for 80 ms) from a holding potential of 0 mV. hERG current was measured as a difference between the peak current at 1 ms after the test step to +40 mV and the steady-state current at the end of the step to +40 mV.
Data acquisition and analyses were performed using the IonWorks Quattro™ system operation software (version 2.0.2; Molecular Devices Corporation, Union City, Calif.). Data were corrected for leak current.
The hERG block was calculated as: % Block=(1−ITA/IControl)×100%, where IControl and ITA were the currents elicited by the test pulse in control and in the presence of a test compound, respectively.
On the technique in general: hERG is a cardiac potassium channel; its block is linked to QT prolongation.

Data set [4] has as its target T3, D2 receptor, human recombinant (GeneBLAzer D2-Gqo5 CHO-K1 DA) (Homo sapiens, UniProt P14416).
T3 construct: purchased Invitrogen; host or cells: CHO-K1 (GeneBLAzer D2-Gqo5 CHO-K1 DA)
Description: Binding assay, dopaminergic D2 receptor ([3H]methylspiperone). To be noted: read-out: Inhibition constant Ki D2. The method, then:
as §1, §2
as §3, with “factor).” for “factor). This analysis was performed using a software developed at Cerep (Hill software) and validated by comparison with data generated by the commercial software SigmaPlot® 4.0 for Windows® (©1997 by SPSS Inc.).”

Data set [5] addresses T4, M3 muscarinic receptors, human recombinant (CHO cells) (Homo sapiens, UniProt P20309).
T4 construct: expressed in transfected cells; host or cells: CHO cells
Description: Binding assay, M3 muscarinic receptor ([3H]4-DAMP). To be noted: compound 1×10^−6 M. Here is the method:
as §1, §2, §3
Experimental conditions for tests are given in Table 10, and results of tests for representative compounds are given in Table 11.

Data set [6] concerns the target T5, 5-HT2A receptor, human recombinant (Homo sapiens, UniProt P28223). Description: Binding assay, 5-HT2A receptor ([3H]ketanserin). Further details: purchased PerkinElmer. To be noted: read-out: Inhibition constant Ki 5-HT2A. The method, then: as §1, §2
as §3, with “factor).” for “factor). This analysis was performed using a software developed at Cerep (Hill software) and validated by comparison with data generated by the commercial software SigmaPlot® 4.0 for Windows® (©1997 by SPSS Inc.).”
Target sequence in this assay (P28223 whole entry): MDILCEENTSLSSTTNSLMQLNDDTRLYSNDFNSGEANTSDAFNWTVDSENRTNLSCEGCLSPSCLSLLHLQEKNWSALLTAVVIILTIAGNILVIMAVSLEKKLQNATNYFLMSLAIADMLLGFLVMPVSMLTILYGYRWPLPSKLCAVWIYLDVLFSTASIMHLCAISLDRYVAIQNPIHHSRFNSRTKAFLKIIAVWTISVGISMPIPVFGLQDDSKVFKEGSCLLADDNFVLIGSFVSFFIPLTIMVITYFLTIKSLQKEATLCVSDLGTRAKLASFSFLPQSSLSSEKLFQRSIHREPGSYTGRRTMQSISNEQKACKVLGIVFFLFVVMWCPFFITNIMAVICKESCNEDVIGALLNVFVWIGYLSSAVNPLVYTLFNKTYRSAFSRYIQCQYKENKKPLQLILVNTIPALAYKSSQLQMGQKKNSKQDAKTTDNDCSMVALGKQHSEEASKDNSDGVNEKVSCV

Data set [7] concerns the target T6, 5-HT6 receptor, human recombinant (Homo sapiens, UniProt P50406).
T6 construct: purchased PerkinElmer
The experiment in a line: Binding assay, 5-HT6 receptor ([3H]LSD). To be noted: read-out: Inhibition constant Ki 5-HT6. The method, then: as §1, §2
as §3, with “factor).” for “factor). This analysis was performed using a software developed at Cerep (Hill software) and validated by comparison with data generated by the commercial software SigmaPlot® 4.0 for Windows® (©1997 by SPSS Inc.).”

Data set [8] deals with T7, human recombinant D3 receptors (Homo sapiens, UniProt P35462).
T7 construct: purchased PerkinElmer
T7 sequence (P35462 whole entry): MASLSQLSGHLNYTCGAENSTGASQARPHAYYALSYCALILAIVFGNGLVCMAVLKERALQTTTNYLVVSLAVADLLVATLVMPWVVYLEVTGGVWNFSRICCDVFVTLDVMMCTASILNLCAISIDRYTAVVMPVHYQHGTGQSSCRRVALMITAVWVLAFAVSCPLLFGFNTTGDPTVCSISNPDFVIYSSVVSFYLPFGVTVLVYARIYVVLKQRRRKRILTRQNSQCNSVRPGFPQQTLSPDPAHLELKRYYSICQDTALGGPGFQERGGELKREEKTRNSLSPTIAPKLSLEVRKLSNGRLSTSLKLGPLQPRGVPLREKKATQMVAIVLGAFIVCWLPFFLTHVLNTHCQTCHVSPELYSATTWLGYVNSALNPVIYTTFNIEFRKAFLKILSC
Description: Binding assay, dopaminergic D3 receptor ([3H]methylspiperone). To be noted: read-out: Inhibition constant Ki D3. Here is the method: as §1, §2
as §3, with “factor).” for “factor). This analysis was performed using a software developed at Cerep (Hill software) and validated by comparison with data generated by the commercial software SigmaPlot® 4.0 for Windows® (©1997 by SPSS Inc.).”

Data set [9] concerns the target T8, 5-HT1A receptor (rat hippocampus) (Rattus norvegicus, UniProt P19327).
T8 construct: hippocampus; from tissue; host or cells: rat hippocampus
T8 sequence (P19327 1-422): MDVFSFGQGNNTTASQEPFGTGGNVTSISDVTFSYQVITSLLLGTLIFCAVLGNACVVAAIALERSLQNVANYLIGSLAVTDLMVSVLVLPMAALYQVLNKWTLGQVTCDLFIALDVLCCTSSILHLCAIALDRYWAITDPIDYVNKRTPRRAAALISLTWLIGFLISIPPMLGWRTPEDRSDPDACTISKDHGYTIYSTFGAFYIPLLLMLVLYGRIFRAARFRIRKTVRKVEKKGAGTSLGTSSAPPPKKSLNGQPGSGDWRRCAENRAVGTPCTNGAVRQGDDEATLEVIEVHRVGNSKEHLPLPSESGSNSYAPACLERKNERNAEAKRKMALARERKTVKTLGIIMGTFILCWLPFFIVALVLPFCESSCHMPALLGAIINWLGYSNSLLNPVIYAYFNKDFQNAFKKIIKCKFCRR
Description: Binding assay, 5-HT1A receptor ([3H]8-OH-DPAT). To be noted: read-out: Inhibition constant Ki 5-HT1A. Here is the method:
as §1, §2
as §3, with “factor).” for “factor). This analysis was performed using a software developed at Cerep (Hill software) and validated by comparison with data generated by the commercial software SigmaPlot® 4.0 for Windows® (©1997 by SPSS Inc.).”

Data set [10] concerns the target T5, 5-HT2A receptor, human recombinant. The experiment in a line: Binding assay, 5-HT2A receptor ([3H]ketanserin). Here is the method: as §1, §2
as §3, with “factor).” for “factor). This analysis was performed using a software developed at Cerep (Hill software) and validated by comparison with data generated by the commercial software SigmaPlot® 4.0 for Windows® (©1997 by SPSS Inc.).”
Target sequence in this assay (P28223 whole entry, looked up): as the sequence (P28223 whole entry) above

Where two headings read alike, the source gives them in different places.

T4 sequence (P20309 whole entry): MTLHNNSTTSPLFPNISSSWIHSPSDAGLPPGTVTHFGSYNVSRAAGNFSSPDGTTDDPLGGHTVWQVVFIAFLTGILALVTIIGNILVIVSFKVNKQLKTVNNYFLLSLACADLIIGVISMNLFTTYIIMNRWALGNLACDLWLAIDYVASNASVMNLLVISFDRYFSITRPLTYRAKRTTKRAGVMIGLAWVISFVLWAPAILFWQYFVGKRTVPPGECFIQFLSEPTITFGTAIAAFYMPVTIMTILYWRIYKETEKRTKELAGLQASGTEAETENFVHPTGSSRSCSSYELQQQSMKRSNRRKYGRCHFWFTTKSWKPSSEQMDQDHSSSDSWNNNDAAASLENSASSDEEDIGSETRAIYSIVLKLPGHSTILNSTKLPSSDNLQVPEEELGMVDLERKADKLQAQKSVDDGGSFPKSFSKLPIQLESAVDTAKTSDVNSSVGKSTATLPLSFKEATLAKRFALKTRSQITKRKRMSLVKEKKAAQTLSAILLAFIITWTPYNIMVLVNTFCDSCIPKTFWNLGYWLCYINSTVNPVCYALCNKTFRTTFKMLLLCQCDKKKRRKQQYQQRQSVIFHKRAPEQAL
T3 sequence (P14416 whole entry): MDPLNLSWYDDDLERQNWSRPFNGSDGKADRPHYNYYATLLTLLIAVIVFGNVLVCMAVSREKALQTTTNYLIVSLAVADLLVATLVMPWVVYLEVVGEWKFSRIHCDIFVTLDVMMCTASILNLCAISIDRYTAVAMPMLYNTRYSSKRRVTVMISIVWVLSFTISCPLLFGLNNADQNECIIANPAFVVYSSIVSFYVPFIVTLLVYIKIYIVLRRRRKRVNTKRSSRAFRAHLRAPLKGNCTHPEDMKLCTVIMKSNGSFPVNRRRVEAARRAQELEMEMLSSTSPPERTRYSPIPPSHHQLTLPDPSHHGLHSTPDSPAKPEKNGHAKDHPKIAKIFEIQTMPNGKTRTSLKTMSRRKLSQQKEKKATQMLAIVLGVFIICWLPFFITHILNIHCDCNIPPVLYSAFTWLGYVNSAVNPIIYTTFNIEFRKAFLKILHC
T6 sequence (P50406 whole entry): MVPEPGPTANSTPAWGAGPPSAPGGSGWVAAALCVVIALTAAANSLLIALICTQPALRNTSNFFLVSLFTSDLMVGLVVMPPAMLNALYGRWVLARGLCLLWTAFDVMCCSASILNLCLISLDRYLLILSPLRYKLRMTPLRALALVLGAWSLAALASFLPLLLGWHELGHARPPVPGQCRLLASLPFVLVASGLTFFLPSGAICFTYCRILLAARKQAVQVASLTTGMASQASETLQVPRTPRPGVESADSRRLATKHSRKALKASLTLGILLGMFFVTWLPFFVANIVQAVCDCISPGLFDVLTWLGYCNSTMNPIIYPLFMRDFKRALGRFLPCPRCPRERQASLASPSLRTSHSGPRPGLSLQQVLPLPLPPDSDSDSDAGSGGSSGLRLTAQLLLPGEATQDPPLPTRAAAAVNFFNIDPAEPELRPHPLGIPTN
T1 sequence (P28223 whole entry): as the sequence (P28223 whole entry) above

As for `O=C1CCc2ccc(OCCCN3CCN(c4cccc5c4ccn5Cc4ccccc4)CC3)cc2N1` [Compound 4, 7-[3-[4-(1-Benzylindol-4-yl)piperazin-1-yl]propoxy]-3,4-dihydro-1H-quinolin-2-one], in [1], the “σ [%] affinity test result” value is listed as 45%. For the same molecule, the “5-HT2A-ag [%]” value in data set [2] is recorded as 2%. Further, in [3], the “hERG [%] (% block of hERG current)” value turned out to be 27%.

Consider `O=C1CCc2ccc(OCCCCN3CCN(c4cccc5c4ccn5Cc4ccccc4)CC3)cc2N1` [Compound 5, 7-(4-(4-(1-Benzyl-1H-indol-4-yl)piperazin-1-yl)butoxy)-3,4-dihydroquinolin-2(1H)-one], for which the “σ [%] affinity test result” value in [1] amounted to 52%. For the same molecule, the “5-HT2A-ag [%]” value in data set [2] amounted to 8%. In addition, the “hERG [%] (% block of hERG current)” value in data set [3] is 30%.

As a reminder, the Ki is the dissociation constant of the complex between target and ligand, obtained from inhibition or displacement. As for `O=C1CCc2ccc(OCCCN3CCN(c4cccc5c4ccn5S(=O)(=O)c4ccccc4)CC3)cc2N1` [Compound 23, 7-[3-[4-[1-(Benzensulphonyl)indol-4-yl]piperazin-1-yl]propoxy]-3,4-dihydro-1H-quinolin-2-one], the Ki is 32 nM in [4]; 170 nM in [6]; 2.1 nM in data set [7]; 3.4 nM in [8]; 6.2 nM in data set [9]; over 10000 nM in data set [3]. Moreover, in data set [5], the “M3 [%] affinity test result” value was determined as 16%. The “σ [%] affinity test result” value in [1] came to 13%. Moreover, in [3], the “hERG [%] (% block of hERG current)” value came out at 7%.

As to `O=C1CCc2ccc(OCCCCN3CCN(c4cccc5c4ccn5S(=O)(=O)c4ccccc4)CC3)cc2N1` [Compound 24, 7-(4-(4-(1-(Phenylsulphonyl)-1H-indol-4-yl)piperazin-1-yl)butoxy)-3,4-dihydroquinolin-2(1H)-one], the inhibition constant Ki in data set [4] is 1.3 nM; in [6], 3.2 nM; in [7], 0.35 nM; in [8] it was 0.81 nM; in data set [9] it was 1.2 nM; in data set [3], over 10000 nM. For the same molecule, the “M3 [%] affinity test result” value in [5] stood at 37%. In addition, the “σ [%] affinity test result” value in data set [1] came out at 57%. Further, the “hERG [%] (% block of hERG current)” value in [3] was found to be 9%.

`O=C1CCc2ccc(OCCCCN3CCN(c4cccc5c4ccn5Cc4cccc(F)c4)CC3)cc2N1` [Compound 63, 7-[4-[4-[1-[(3-Fluorophenyl)methyl]indol-4-yl]piperazin-1-yl]butoxy]-3,4-dihydro-1H-quinolin-2-one]: the “5-HT2A-ag [%]” value in data set [2] is listed as 6%.

As to `O=C1CCc2ccc(OCCCCN3CCN(c4cccc5c4ccn5Cc4cccc(Cl)c4)CC3)cc2N1` [Compound 67, 7-[4-[4-[1-[(3-Chlorophenyl)methyl]indol-4-yl]piperazin-1-yl]butoxy]-3,4-dihydro-1H-quinolin-2-one], the values for the Ki in data set [10] and in data set [9] were 2.4 nM and 7 nM, respectively. The “5-HT2A-ag [%]” value in data set [2] amounted to 4%.

For the molecule `NC(=O)c1ccccc1OCCCN1CCN(c2cccc3c2ccn3S(=O)(=O)c2ccccc2)CC1` [Compound 72, 2-[3-[4-[1-(Benzenesulfonyl)indol-4-yl]piperazin-1-yl]propoxy]-benzamide], the Ki in data set [4] amounted to 3.2 nM; in data set [6], 18 nM; in [7] it was 0.31 nM; in data set [9] it was 3.9 nM. The “M3 [%] affinity test result” value in data set [5] is 23%. Moreover, the “5-HT2A-ag [%]” value in data set [2] turned out to be 2%.

Values taken from patent publication US20140121216A1, “INDOLEAMINE DERIVATIVES FOR THE TREATMENT OF CENTRAL NERVOUS SYSTEM DISEASES” (Adamed Sp. z o.o., priority 2011, published 2014).
